The text below walks through data of publication PMC10313808, “Lipoxygenase inhibitory synthetic derivatives of methyl gallate regulate gene expressions of COX-2 and cytokines to reduce animal model arthritis” (Scientific Reports, 2023).

Where two headings read alike, the source gives them in different places. Marks after values point to notes of the source that are not given here.

For one series, the system named is COX-2. Kind of series: RT-PCR gene expression in hind paw tissue, COX-2. It counts as in vivo, Sprague–Dawley (SD) rats. As to conditions: normalized to GAPDH, vs arthritic control. The procedure:
This study aimed to gain insight into the mechanism by which methyl gallate and its derivative influence the chronic inflammatory condition in the rat model. In the present study, the inflammatory pathway genes were identified, and their relative expression was quantified (COX-2 and TNF α). RNA was isolated from the hind paw tissue of rats and its concentration was analyzed through Qubit fluorometer. RNA was isolated by Trizol method and agarose gel electrophoresis performed. After the isolation protocol, complementary DNA was synthesized and followed the quantitative PCR with standard conditions. Primers of the targets were designed in Primer3Plus and primer validation was carried out. PCR annealing temperatures were standardized to amplify the specific genes. All the primer pairs were highly specific and resolved into single bands corresponding to amplification products of expected size on 2% agarose gel electrophoresis. Primer specificity was further confirmed by a single distinct peak on the melt curve. The specificity of primer pairs ensures the sequence quality of respective gene templates.
The relative expression of inflammatory genes was identified through quantitative RT-PCR. […] The concentration of RNA isolated was measured in the Qubit fluorometer with the RNA HS assay kit. cDNA was synthesized by reverse transcription using total RNA (2 μg) as a template. […]

For series [1], the system named is FCA-induced arthritis. As to conditions: for ALP / SGOT / SGPT: FCA rats, serum; for liver damage: rat, in vivo. The procedure: (§1) Chronic inflammation induced by Freund's Complete Adjuvant contains a suspension of heat-killed Mycobacterium tuberculosis in the vehicle (Chondrex, Labex Corporation). 100 μL of FCA (10 mg/mL) was injected intradermally to the left-hand paw of SD rats[42]. […] Induction of inflammation became chronic by 9–12 days and then rats were divided into 7 groups having 6 rats in each group. Everything possible was done to minimize the suffering of experimental animals. Minimum number of rats only were drafted to generate reliable data. 42 rats were randomly allocated into seven groups (6 × 7).
(§2) Group I (n = 6) served as normal rats that received an equal volume of vehicle control. Group II (n = 6) was arthritic model control treated with vehicle only. Group III (n = 6) was arthritic control which received the diclofenac (10 mg.kg^–1). Groups IV (n = 6), V (n = 6), VI (n = 6) and VII (n = 6) were treated with a low and high dose of methyl gallate (20 mg.kg^–1, 40 mg.kg^–1) and MGSD 1 (1 mg.kg^–1, 10 mg.kg^–1). The drugs were orally administered through oral gavage daily in PBS vehicle for 28 days.
(§3) Blood was drawn from jugular vein[43] and collected in heparinized tubes and used for further analysis. By using Horiba 5-part hematology analyzer the blood parameters like RBC, WBC, neutrophil and hemoglobin were analyzed. Serum parameters were analyzed using Stat Fax autoanalyzer. Serum glutamic pyruvic transaminase (SGPT), serum glutamic oxaloacetic transaminase (SGOT) and alkaline phosphatase (ALP) were determined using standard diagnostic kits (Proton, Accurex).

In series [2] the test system is FCA-induced arthritis. Kind of series: FCA-induced arthritis: haematological parameters. In kind it is in vivo, Sprague–Dawley (SD) rats. As to conditions: FCA rats. The protocol: as §1, §2, §3
A short description of series [3]: FCA-induced arthritis: body weight measurement. The conditions noted are these: FCA rats. In kind it is in vivo, Sprague–Dawley (SD) rats. The procedure: as §1, §2
The bodyweight of the animals was measured every day after the commencement of the experiment till the end (28th day). The weight change was calculated using the formula: Weightchange%=Wt-Wo/[…], where Wt is the weight of the animal at time t
Wo is the weight of the animal on the initial day.

Regarding `O=C(O)COc1cc(C(=O)O)cc(OCC(=O)O)c1OCC(=O)O` [MGSD 1, 2,2′,2″-((5-carboxybenzene-1,2,3-triyl)tris(oxy)) tri acetic acid], in the series on COX-2, the COX-2 gene expression entry is recorded as “significant down regulation of COX-2”. In the series on FCA-induced arthritis [1] (1 mg.kg^−1 oral), the ALP is listed as 435 ± 72.16, the SGOT came to 162 ± 7.57 IU/L and the SGPT was 85 ± 2.60 IU/L. Further, in the series with FCA-induced arthritis [1] (10 mg.kg^−1 oral), the ALP is on record as 309 ± 54.42, the SGOT turned out to be 179 ± 3.52 IU/L and the SGPT was 82 ± 1.73 IU/L. Moreover, in the series with FCA-induced arthritis [1], the liver damage entry was “did not show any liver damage”. In the series with FCA-induced arthritis [2] (1 mg.kg^−1 oral), the Hb was determined as 14.8 ± 0.42 g/dL, the Lymphocyte turned out to be 75.8 ± 0.21%, the Neutro phil was determined as 11.6 ± 0.76% and the RBC is 6.93 ± 0.18^# 10^6/mm^3. In the series on FCA-induced arthritis [2] (1 mg.kg^−1 oral), the WBC is recorded as 9.3 ± 0.48^# 10^3/mm^3. In addition, in the series with FCA-induced arthritis [2] (10 mg.kg^−1 oral), the Hb was determined as 14.2 ± 0.26 g/dL, the Lymphocyte was 75.9 ± 3.44%, the Neutro phil stood at 13.4 ± 0.23% and the RBC is reported as 7.075 ± 0.37^# 10^6/mm^3. Further, the WBC in the series on FCA-induced arthritis [2] (10 mg.kg^−1 oral) was 8.45 ± 0.98* 10^3/mm^3. In series [3] (1 mg.kg^−1 oral), the “Percentage of body weight (Mean ± SEM) 9th day” value is 13.40 ± 0.26 %, the “Percentage of body weight (Mean ± SEM) 18th day” value was found to be 25.99 ± 51 % and the “Percentage of body weight (Mean ± SEM) 28th day” value amounted to 40.15 ± 0.00 %. In series [3] (10 mg.kg^−1 oral), the “Percentage of body weight (Mean ± SEM) 9th day” value was found to be 14.47 ± 1.13 %, the “Percentage of body weight (Mean ± SEM) 18th day” value is on record as 30.20 ± 1.57 % and the “Percentage of body weight (Mean ± SEM) 28th day” value was found to be 38.44 ± 1.81 %.
Turning to `COC(=O)c1cc(O)c(O)c(O)c1` [Methyl gallate], the COX-2 gene expression entry in the series on COX-2 is given as “significant down regulation of COX-2”. In the series on FCA-induced arthritis [1] (20 mg.kg^−1 oral), this compound showed an SGOT of 243 ± 13.28 IU/L and an SGPT of 94 ± 3.17 IU/L. Further, in the series on FCA-induced arthritis [1] (40 mg.kg^−1 oral), the SGOT is 183 ± 6.38 IU/L and the SGPT was found to be 102 ± 2.18 IU/L. Also, in the series on FCA-induced arthritis [1], the liver damage result is on record as “did not show any liver damage”. Moreover, in the series on FCA-induced arthritis [2] (20 mg.kg^−1 oral), the Hb is 14.2 ± 0.65 g/dL, the Lymphocyte came out at 79 ± 0.79%, the Neutro phil was 11.7 ± 0.25% and the RBC was 7.47 ± 0.32^# 10^6/mm^3. Moreover, the WBC with FCA-induced arthritis [2] (20 mg.kg^−1 oral) is listed as 8.3 ± 0.6 10^3/mm^3. In the series on FCA-induced arthritis [2] (40 mg.kg^−1 oral), the Hb amounted to 14.4 ± 0.74 g/dL, the Lymphocyte is 78.6 ± 1.85%, the Neutro phil was determined as 12.8 ± 0.4% and the RBC was 7.87 ± 0.34^# 10^6/mm^3. Also, in the series on FCA-induced arthritis [2] (40 mg.kg^−1 oral), the WBC is 11.25 ± 0.62^# 10^3/mm^3. In series [3] (20 mg.kg^−1 oral), the “Percentage of body weight (Mean ± SEM) 9th day” value is given as 9.43 ± 0.84%, the “Percentage of body weight (Mean ± SEM) 18th day” value is 23.61 ± 0.65% and the “Percentage of body weight (Mean ± SEM) 28th day” value is recorded as 34.17 ± 0.23 %. Besides, in series [3] (40 mg.kg^−1 oral), the “Percentage of body weight (Mean ± SEM) 9th day” value turned out to be 10.34 ± 0.52%, the “Percentage of body weight (Mean ± SEM) 18th day” value amounted to 22.42 ± 0.28% and the “Percentage of body weight (Mean ± SEM) 28th day” value is on record as 30.99 ± 0.23 %.
